Source: patent US20240270715A1, “INHIBITORS OF TRANSGLUTAMINASES” (ZEDIRA GMBH, priority 2021, published 2024)

Tests used:
[1] = Caco-2 permeability assay (CacoReady kit); type: in vitro ADME; conditions: human
Procedure: Permeability coefficients (Papp values) were obtained from Caco-2 barrier studies predicting oral/intestinal bioavailability of the tested compounds. The assays were performed by using CacoReady™ ready-to-use kits from ReadyCell according to the manufacturers protocol.

[2] = target: T1, recombinant human transglutaminase 2 (Homo sapiens, UniProt P21980); experiment: Transglutaminase assay: incorporation of dansylcadaverine into dimethylcasein (DCC-assay); type: biochemical; conditions: recombinant human TG2 10 nM, dansylcadaverine/dimethylcasein; read-out: IC50 TG2
T1 sequence (P21980 1-687): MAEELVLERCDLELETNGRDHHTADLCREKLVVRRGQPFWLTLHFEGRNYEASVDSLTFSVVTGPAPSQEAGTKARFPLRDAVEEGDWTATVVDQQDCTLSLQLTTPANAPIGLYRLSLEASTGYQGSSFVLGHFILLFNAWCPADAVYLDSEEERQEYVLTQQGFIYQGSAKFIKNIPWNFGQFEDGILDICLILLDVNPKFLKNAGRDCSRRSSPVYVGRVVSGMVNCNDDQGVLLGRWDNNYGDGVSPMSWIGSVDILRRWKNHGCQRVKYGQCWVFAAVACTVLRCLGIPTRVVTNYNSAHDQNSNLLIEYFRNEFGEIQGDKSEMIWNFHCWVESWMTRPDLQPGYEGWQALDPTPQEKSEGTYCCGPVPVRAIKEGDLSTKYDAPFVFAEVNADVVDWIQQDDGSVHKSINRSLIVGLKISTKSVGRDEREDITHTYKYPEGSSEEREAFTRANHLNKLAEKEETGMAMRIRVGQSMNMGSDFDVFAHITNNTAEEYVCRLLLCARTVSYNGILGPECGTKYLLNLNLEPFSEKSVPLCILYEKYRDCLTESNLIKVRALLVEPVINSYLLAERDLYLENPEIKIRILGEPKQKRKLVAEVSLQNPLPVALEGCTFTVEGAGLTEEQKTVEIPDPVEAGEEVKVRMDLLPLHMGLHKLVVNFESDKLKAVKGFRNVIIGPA
Procedure: To illustrate the advantage of branched alkyl moieties over aromatic moieties, we refer to reference compounds Ref. 2 (ZED1227, U.S. Pat. No. 9,434,763 B2) and Ref. 3 (A8, ZED1047). Inhibition data were determined using the classical fluorescent transamidation assay (dansylcadaverine incorporation into methylated casein, DCC-assay) as described [Büchold, C.; Hils, M.; Gerlach, U.; Weber, J.; Pelzer, C.; Heil, A.; Aeschlimann, D.; Pasternack, R. Features of ZED1227: The First-In-Class Tissue Transglutaminase Inhibitor Undergoing Clinical Evaluation for the Treatment of Celiac Disease. Cells 2022, 11, 1667. https://doi.org/10.3390/cells11101667]. Casein is one of the best known high molecular weight (24 kDa) protein substrates for transglutaminases. Please note, the IC50 value of Ref. 3 (A8) published in U.S. Pat. No. 9,434,763 B2 cannot be compared to the present data, relying on a fluorogenic isopeptidase assay.
To this extent, inhibition data were determined using the classical fluorescent transamidation assay (dansylcadaverine incorporation into methylated casein, DCC-assay) as described in Büchold et al. [Büchold, C.; Hils, M.; Gerlach, U.; Weber, J.; Pelzer, C.; Heil, A.; Aeschlimann, D.; Pasternack, R. Features of ZED1227: The First-In-Class Tissue Transglutaminase Inhibitor Undergoing Clinical Evaluation for the Treatment of Celiac Disease. Cells 2022, 11, 1667. https://doi.org/10.3390/cells11101667]. Casein is one of the best known high molecular weight (24 kDa) protein substrates for transglutaminases. Inhibition data of the inventive compounds was compared with inhibition of compounds disclosed in U.S. Pat. No. 9,434,763 B2, particularly, compound A8, which is denoted herein as Reference 3. It is noteworthy that the IC50 values of compounds A8 published in U.S. Pat. No. 9,434,763 B2 and E16 from U.S. Pat. No. 11,072,634 B2 cannot be compared to the present data, relying on a fluorogenic isopeptidase assay.
For the determination of potency of inhibitors against tissue transglutaminase, the incorporation of dansylcadaverine into dimethylcasein (Zedira product T036, Lorand et al., Anal Biochem, 1971, 44:221-31) was measured using recombinant human transglutaminase 2 (Zedira Product T022).
The tissue transglutaminase is diluted in buffer (50 mM Tris-HCl, 7.5 mM CaCl2, 150 mM NaCl, pH=7.4). The final concentration of TG2 in the assay is 10 nM.
A 10 mM inhibitor stock solution is prepared in DMSO, and from this a serial 1:2-fold dilution series is prepared also in DMSO. Each of the initial dilutions is subsequently diluted 1:50-fold with buffer (50 mM Tris-HCl, 7.5 mM CaCl2, 150 mM NaCl, pH=7.4) to yield the final working dilutions containing 2% (v/v) DMSO. 15 μl of inhibitor working dilution are added per well of a 96 well microtiter plate. As control, 15 μl of a 2% (v/v) DMSO solution prepared using the buffer mentioned above are added per well.
Immediately before starting the assay, 600 μl transglutaminase working solution are added to 11.4 ml assay buffer (50 mM Tris-HCl, 10 mM CaCl2, 10 mM glutathione, 2.5% glycerol, 16.7 μM dansylcadaverine, 4 μM N,N-dimethylcasein, 200 mM NaCl, pH=8.0). 285 μl of this reaction mix are added per well containing the inhibitor.
Increase in fluorescence is measured using λex=330 nm and λemG=500 nm at […] for 30 min. A slope of the increase in fluorescence between 20 and 30 min is calculated for determination of the IC50 value (inhibitor concentration at which 50% of the initial activity is blocked).
Analysis of enzymatic activity is performed by calculation of the slope of an increase in fluorescence intensity. IC50 values are calculated by plotting the enzymatic activity (as percentage from control containing 2% DMSO instead of inhibitor) against the inhibitor concentration. IC50 is defined as the inhibitor concentration blocking 50% of initial enzyme activity.

[3] = Log D by shake flask method (octanol / PBS pH 7.4, HPLC); type: physicochemical; conditions: octanol / PBS pH 7.4, shake flask; read-out: logD
Procedure: In order to classify the inventive compounds according to their lipophilicity, Log D values (distribution coefficient) were determined by means of the well-established shake flask method, measuring the partition of a compound between an octanol and phosphate-buffered saline (PBS, pH 7.4) by HPLC.
Compounds with a moderate lipophilicity (Log D values from 0 to 3) are usually advantaged for oral absorption, being in balance between solubility and permeability. However, sophisticated formulation of a compound might improve oral bioavailability for highly lipophilic compounds.

SMILES: CCNC(=O)C(=O)CC[C@H](NC(=O)c1cncn1C)C(=O)Nc1cccn(CC(=O)NC23CC4CC(CC(C4)C2)C3)c1=O [Compound I-1, (S)-N1-ethyl-N6-(1-(2-(1-adamantylamino)-2-oxoethyl)-2-oxo-1,2-dihydropyridin-3-yl)-5-(1-methyl-1H-imidazole-5-carboxamido)-2-oxohexanediamide]
- Papp [1]: < 1 ×10⁻⁶ cm/s
- IC50 [2]: 600 to 3500 nM
- logD [3]: < 1

SMILES: CCNC(=O)C(=O)CC[C@H](NC(=O)c1c[nH]cn1)C(=O)Nc1cccn(CC(=O)NC23CC4CC(CC(C4)C2)C3)c1=O [Compound I-2, (S)-N1-ethyl-5-(1H-imidazole-4-carboxamido)-N6-(1-(2-(1-adamantylamino)-2-oxoethyl)-2-oxo-1,2-dihydropyridin-3-yl)-2-oxohexanediamide]
- Papp [1]: < 1 ×10⁻⁶ cm/s
- IC50 [2]: 600 to 3500 nM
- logD [3]: < 1

SMILES: CCNC(=O)C(=O)CC[C@H](NC(=O)c1cncn1C)C(=O)Nc1cccn(CC(=O)N(C)C23CC4CC(CC(C4)C2)C3)c1=O [Compound I-3, (S)-N1-ethyl-N6-(1-(2-(1-adamantyl(methyl)amino)-2-oxoethyl)-2-oxo-1,2-dihydropyridin-3-yl)-5-(1-methyl-1H-imidazole-5-carboxamido)-2-oxohexanediamide]
- Papp [1]: < 1 ×10⁻⁶ cm/s
- IC50 [2]: 600 to 3500 nM
- logD [3]: 1 to 3

SMILES: CCNC(=O)C(=O)CC[C@H](NC(=O)c1cncn1C)C(=O)Nc1cccn(CC(=O)NC23CC4CC(C)(CC(C)(C4)C2)C3)c1=O [Compound I-4, (S)-N1-ethyl-N6-(1-(2-(3,5-dimethyladamantane-1-amino)-2-oxoethyl)-2-oxo-1,2-dihydropyridin-3-yl)-5-(1-methyl-1H-imidazole-5-carboxamido)-2-oxohexanediamide]
- Papp [1]: < 1 ×10⁻⁶ cm/s
- IC50 [2]: < 150 nM
- logD [3]: 1 to 3

SMILES: CCNC(=O)C(=O)CC[C@H](NC(=O)c1cncn1C)C(=O)Nc1cccn(CC(=O)NC23CC4CC(CC(CC)(C4)C2)C3)c1=O [Compound I-5, (S)-N1-ethyl-N6-(1-(2-(3-ethyladamantane-1-amino)-2-oxoethyl)-2-oxo-1,2-dihydropyridin-3-yl)-5-(1-methyl-1H-imidazole-5-carboxamido)-2-oxohexanediamide]
- Papp [1]: < 1 ×10⁻⁶ cm/s
- IC50 [2]: 150 to 600 nM
- logD [3]: 1 to 3

SMILES: CCNC(=O)C(=O)CC[C@H](NC(=O)c1cncn1C)C(=O)Nc1cccn(CC(=O)NC23CC4CC(C2)CC(C(F)(F)F)(C4)C3)c1=O [Compound I-6, (S)-N1-ethyl-N6-(1-(2-(3-trifluoromethyladamantane-1-amino)-2-oxoethyl)-2-oxo-1,2-dihydropyridin-3-yl)-5-(1-methyl-1H-imidazole-5-carboxamido)-2-oxohexanediamide]
- Papp [1]: < 1 ×10⁻⁶ cm/s
- IC50 [2]: 150 to 600 nM
- logD [3]: < 1

SMILES: CCNC(=O)C(=O)CC[C@H](NC(=O)c1cncn1C)C(=O)Nc1cccn(CC(=O)NC23CC4CC(CC(O)(C4)C2)C3)c1=O [Compound I-7, (S)-N1-ethyl-N6-(1-(2-(3-hydroxyadamantane-1-amino)-2-oxoethyl)-2-oxo-1,2-dihydropyridin-3-yl)-5-(1-methyl-1H-imidazole-5-carboxamido)-2-oxohexanediamide]
- Papp [1]: < 1 ×10⁻⁶ cm/s
- IC50 [2]: 600 to 3500 nM
- logD [3]: < 1

SMILES: CCNC(=O)C(=O)CC[C@H](NC(=O)c1cncn1C)C(=O)Nc1cccn(CC(=O)NC23CC4CC(CC(F)(C4)C2)C3)c1=O [Compound I-8, (S)-N1-ethyl-N6-(1-(2-(3-fluoroadamantane-1-amino)-2-oxoethyl)-2-oxo-1,2-dihydropyridin-3-yl)-5-(1-methyl-1H-imidazole-5-carboxamido)-2-oxohexanediamide]
- Papp [1]: < 1 ×10⁻⁶ cm/s
- IC50 [2]: 150 to 600 nM
- logD [3]: < 1

SMILES: CCNC(=O)C(=O)CC[C@H](NC(=O)c1cncn1C)C(=O)Nc1cccn(CC(=O)NC23CC4CC(CC(Cl)(C4)C2)C3)c1=O [Compound I-9, (S)-N1-ethyl-N6-(1-(2-(3-chloroadamantane-1-amino)-2-oxoethyl)-2-oxo-1,2-dihydropyridin-3-yl)-5-(1-methyl-1H-imidazole-5-carboxamido)-2-oxohexanediamide]
- Papp [1]: < 1 ×10⁻⁶ cm/s
- IC50 [2]: 150 to 600 nM
- logD [3]: < 1

SMILES: CCNC(=O)C(=O)CC[C@H](NC(=O)c1cncn1C)C(=O)Nc1cccn(CC(=O)NC23CC4CC(CC(Br)(C4)C2)C3)c1=O [Compound I-10, (S)-N1-ethyl-N6-(1-(2-(3-bromoadamantane-1-amino)-2-oxoethyl)-2-oxo-1,2-dihydropyridin-3-yl)-5-(1-methyl-1H-imidazole-5-carboxamido)-2-oxohexanediamide]
- Papp [1]: < 1 ×10⁻⁶ cm/s
- IC50 [2]: 150 to 600 nM
- logD [3]: < 1

SMILES: CCNC(=O)C(=O)CC[C@H](NC(=O)c1cncn1C)C(=O)Nc1cccn(CC(=O)NC23CC4CC(C2)CC(C(=O)OC)(C4)C3)c1=O [Compound I-11, (S)-N1-ethyl-N6-(1-(2-(3-methyladamantane-3-carboxylate-1-amino)-2-oxoethyl)-2-oxo-1,2-dihydropyridin-3-yl)-5-(1-methyl-1H-imidazole-5-carboxamido)-2-oxohexanediamide]
- Papp [1]: < 1 ×10⁻⁶ cm/s
- IC50 [2]: 150 to 600 nM
- logD [3]: < 1

SMILES: CCNC(=O)C(=O)CC[C@H](NC(=O)c1cncn1C)C(=O)Nc1cccn(CC(=O)NC23CC4CC(C2)C(F)(F)C(C4)C3)c1=O [Compound I-12, (S)-N1-ethyl-N6-(1-(2-(4,4-difluoroadamantane-1-amino)-2-oxoethyl)-2-oxo-1,2-dihydropyridin-3-yl)-5-(1-methyl-1H-imidazole-5-carboxamido)-2-oxohexanediamide]
- Papp [1]: < 1 ×10⁻⁶ cm/s
- IC50 [2]: 150 to 600 nM
- logD [3]: < 1
